Measurements from US7582786B2, “Synthetic catalytic free radical scavengers useful as antioxidants for prevention and therapy of disease” (Eukarion Inc., priority 1996, dated 2009).

How the values were obtained:
[1] = tested on: Human dermal fibroblasts (HF cells); experiment: Cell protection assay, glucose/glucose oxidase toxicity, XTT; type: cell-based
Description: (§1) Human dermal fibroblasts (HF cells) were obtained from the American type tissue Culture Collection at passage 1 and cultured and propagated in a medium (HF medium) consisting of Dulbecco's Modified Eagle's Medium with 4.5 g/l D-glucose, 10% calf serum 4 mM glutamine, 50 units/ml penicillin, and 50 μg/ml streptomycin in a 37° C. humidified incubator equilibrated with 5% CO2. Cells were used at passages 5 or 6 for experiments. For cell protection assays, HF cells were seeded at a density of about 15,000 cells per cm2 onto 96-well culture plates and allowed to grow to confluence. To assess protection tert-butylhydroperoxide (t-BHP) toxicity, confluent cell layers were first treated with the indicated concentrations of test compounds dissolved in HF medium for 18 hr. The medium was then replaced with fresh medium containing test compounds and 0.5 mM tert-butylhydroperoxide (t-BHP) and cells were incubated for another 18 hr. The medium was then removed and replaced with fresh HF medium (100 μl per well) without test compounds or t-BHP. Fifty μl of XTT reagent (Boeringer Mannheim, Inc.), prepared as described by the manufacturer, was then added to each well and the plates returned to the incubator. After 2 hr., the absorbance at 490 nm was measured in a BioRad (Richmond, Calif.) Model 3550 plate-reader, using a reference wavelength of 655 nm. Control cells that had not been exposed to test compounds or toxic agents were included among the samples treated with XTT reagent. Absorbance measurements for blank wells, containing HF medium and XTT reagent but no cells, were also determined. To analyze protection from glucose/glucose oxidase toxicity, confluent cell layers were incubated with HF medium containing glucose oxidase (0.019 units/ml) along with test compounds, as indicated, for 18 hr in the tissue culture incubator. Fresh HF medium was then added and cell viability assessed using the XTT reagent as described above. For both these models, concentrations of toxic agents were selected that were reproducibly completely lethal. Cytotoxicity assessments were routinely confirmed by visual inspection of the cell layers prior to addition of the XTT reagent.
(§2) Catalase and peroxidase activities were assayed as described in Example 2. Catalase assays contained 10 μM salen-manganese complex and 10 mM hydrogen peroxide. Peroxidase assays contained 10 μM salen-manganese complex and 0.2 mM hydrogen peroxide. Glucose-glucose oxidase toxicity assays were performed using human dermal fibroblasts as described in Example 2.

[2] = Catalase activity, conversion of H2O2 to oxygen, polarographic oxygen electrode (Example 2); type: biochemical
Description: Catalase activity was assayed by monitoring the conversion of H2O2 to oxygen using a Clark-type polarographic oxygen electrode. The apparatus consisted of a Mini Clark Style electrode, a 600 μl Oxygen Uptake Chamber, and a Chemical Microsensor system, all obtained from Diamond General Corporation (Ann Arbor, Mich.). The electrode was calibrated by immersion in nitrogen- or air-equilibrated buffers using a Dual Chamber Calibration Cell (Diamond General,. Corp.). Catalase reaction mixtures consisted of 50 mM sodium phosphate, pH 8.1, 0.9% sodium chloride, and salen manganese complex and H2O2 at the indicated concentrations. The temperature of the water-jacketed reaction chamber, as well as the calibration buffers, was maintained at 25±0.1° C. Data were collected at 1 sec intervals and stored-on a MacIntosh II computer using data acquisition hardware and software by Strawberry Tree, Inc. (Sunnyvale, Calif.). Dissolved oxygen concentrations were calculated as described previously (Del Rio et al. (1977) Anal. Biochem. 80: 409) based on a value of 2.5×10^−4 M oxygen for air-saturated buffer at 25° C. Linearity of the dissolved oxygen measurements within the experimental range was continued by determining the amount of oxygen generated from known quantities of H2O2 during exhaustive treatment with bovine liver catalase. Stock solutions of H2O2 were prepared by diluting a commercial 30% H2O2 solution in water and the H2O2 concentrations in these stocks were determined by absorbance at 240 nm, using a molar extinction coefficient of 44 (Stadtman, E R. et al. (1990) Proc. Natl. Acad. Sci. USA 87: 384). […] In the absence of salen manganese complex, H2O2 alone typically produced an early, relatively slow increase in signal. The slope of this increased signal was not proportional to H2O2 concentration (for example in one experiment, 1 and 10 Mm H2O2 yielded apparent rates of 12 and 14 μM oxygen per min, respectively) and may be due to an electrode artifact. […] Where presented, initial rates were calculated by determining the slope of the linear portion of time dependent plots of oxygen generation, usually comprising the first five seconds of the reaction. Unless otherwise indicated, these were corrected by subtracting the rate obtained with H2O2 alone. Where presented, endpoint oxygen generated was calculated from time-dependent plots, such as those shown in FIG. 14, as the difference between the baseline oxygen concentration immediately prior to substrate addition and the maximal oxygen concentration achieved during the course of the reaction. All reactions subjected to these calculations were run for a sufficient time to ensure that oxygen generation had ceased.
as §2

brain homogenates = experiment: Iron-induced lipid peroxidation in brain homogenates (MDA); type: biochemical, rat
Description: Lipid peroxidation was induced by incubating a mixture consisting of 0.25 ml homogenate, 0.25 ml ASCF with test compounds, and 10 μM FeCl2 for 1 hr at 35° C. under an atmosphere equilibrated with O2:CO2(95:5). Following the incubation, 0.1 ml of the sample was extracted with trichloroacetic acid and analyzed for thiobarbituric acid reactive material as described previously, using authentic malonyldialdehyde (MDA) as a standard.

[3] = Peroxidase activity, H2O2-dependent oxidation of ABTS (Example 2); type: biochemical; conditions: for Peroxidase rate: 10 μM salen manganese complex, 0.2 mM H2O2; for Peroxidase: relative to C7 (C7 = 100)
Description: (§3) Peroxidase activity was assayed by monitoring the hydrogen peroxide-dependent oxidation of 2,2′-azino-bis(3-ethylbenzthiazoline-6) sulfonic acid (ABTS) spectrophotometrically. Standard assay mixtures consisted of 50 mM sodium phosphate, pH 8.1, 0.9% sodium chloride, 0.5 mM ABTS, and H2O2 and salen manganese complex as indicated. Where indicated, 50 mM sodium phosphate buffers of pH 6.0 or pH 7.1 were substituted. Assays were conducted at 27±0.2° C. ABTS oxidation was monitored at 740 or 500 nm to eliminate interference by the salen manganese complexes, many of which absorb in the vicinity of the λmax of oxidized ABTS, and to avoid absorbance values that exceeded the linear range of the spectrophotometer. The amount of oxidized ABTS was estimated using an Δε740 of 20,300 M^−1cm^−1 or an Δε500 of 3400 M^−1cm^−1 calculated based upon the published molar extinction coefficient oat 405 nm (36,800).
as §2

[4] = tested on: Human dermal fibroblasts (HF cells); experiment: Cell protection assay, tert-butylhydroperoxide (t-BHP) toxicity, XTT; type: cell-based; conditions: for Cell viability, absorbance at 490 nm uncorrected for blank: t-BHP 0.5 mM
Description: as §1

[5] = SOD activity, xanthine/xanthine oxidase with cytochrome C as acceptor (Example 2); type: biochemical; conditions: relative to C7 (C7 = 100)
Description: Superoxide dismutase (SOD) activity was assayed by following the inhibition of the reduction of an electron acceptor molecule in the presence of the free-radical generating system xanthine/xanthine oxidase (McCord et al. (1973) Superoxide and Superoxide Dismutase in “Oxidases and Related Redox Systems, vol. I, King et al. eds., University Park press, Baltimore, pp. 51-76). The assay mixture consisted of 50 mM sodium phosphate, pH 7.8, 120 μM xanthine, 0.2 units/ml xanthine oxidase, with acceptor molecule and salen manganese compound, as indicated. Assays were conducted at 27±0.2° C. using a water-jacketed cell holder in a Beckman DU7400 spectrophotometer. In most cases, oxidized cytochrome c, at 0.13 mg/ml, was employed as acceptor and its reduction was monitored spectrophotometrically at 550 nm. In some experiments, nitroblue tetrazolium (NBT), at 80 μM, was substituted for cytochrome c as the acceptor. NBT reduction was also monitored at 550 nm. An estimated extinction coefficient for NBT reduction, 20,800 M^−1cm^−1, determined empirically by exhaustive reduction of NBT in the reaction mixture described above, was employed where indicated. […] Conversion of xanthine to urate was calculated using ε290's of […] for urate and 4050 M^−1cm^−1 for xanthine. […] For each compound, at least four different concentrations were tested in duplicate.

[6] = Peroxidase activity with t-BHP as substrate, ABTS oxidation; type: biochemical; conditions: 1 mM t-BHP
Description: as §3
(In comparison, horseradish peroxidase utilized t-BHP with an ABTS oxidation rate that was about 5.4% of the rate with H2O2).

[7] = 10 μM salen manganese complex, 10 mM H2O2

Row | Compound | protection against glucose and glucose oxidase (in words) [1] | Catalase rate [2, 7] [μM O2/min] | Endpoint [2, 7] [maximal μM O2] | Catalase endpt. ([2]; relative to C7 (C7 = 100)) | Catalase rate ([2]; relative to C7 (C7 = 100)) | MDA levels, percent of control (brain homogenates; 1 μM) [%] | MDA levels, percent of control (brain homogenates; 5 μM) [%] | MDA levels, percent of control (brain homogenates; 10 μM) [%] | MDA levels, percent of control (brain homogenates; 25 μM) [%] | Peroxidase rate [3] [μM ABTS oxidized/min] | Peroxidase [3] | Cell viability, absorbance at 490 nm uncorrected for blank ([4]; 2.5 μM) | Cell viability, absorbance at 490 nm uncorrected for blank ([4]; 5 μM) | Cell viability, absorbance at 490 nm uncorrected for blank ([4]; 10 μM) | Cell viability, absorbance at 490 nm uncorrected for blank ([4]; 20 μM) | Cell viability, absorbance at 490 nm uncorrected for blank ([4]; 40 μM) | Cell viability, absorbance at 490 nm uncorrected for blank ([4]; 80 μM) | SOD [5] | also measured
1 | CC(=O)[O][Mn]1[O]c2ccccc2C=NCCN=Cc2ccccc2[O]1 [Compound C31] | about equally as effective as C7 | 131.9 ± 12.9 | 29.6 ± 0.5 | 81 | 92 | 108 | 22 | 6 | 0 | 21.3 ± 0.5 | 114 | 0.28 ± 0.01 | 1.25 ± 0.09 | 1.41 ± 0.08 | 1.40 ± 0.06 | 1.30 ± 0.03 | 1.16 ± 0.09 | 101 | synergistic toxicity with t-BHP ([4]; 80 μM): possible synergistic toxicity
2 | COc1ccc2c(c1)[O][Mn]([O]C(C)=O)[O]c1cc(OC)ccc1C=NCCN=C2 [Compound C33] | about equally as effective as C7 | 53.9 ± 8.7 | 12.6 ± 1.3 | 44 | 38 | 98 | 38 | 16 | 7 | 0.8 ± 0.2 | 4 | 0.27 ± 0.01 | 0.27 ± 0.01 | 1.35 ± 0.08 | 1.44 ± 0.08 | 1.50 ± 0.11 | 1.36 ± 0.02 | 68 | –
3 | COc1ccc2c(c1)[O][Mn]([Cl])[O]c1cc(OC)ccc1C=NCCN=C2 [Compound C34] | about equally as effective as C7 | 66.4 ± 13.9 | 11.9 ± 0.2 | 44 | 46 | 97 | 30 | 12 | 6 | 0.8 ± 0.2 | 4 | 0.27 ± 0.01 | 0.27 ± 0.01 | 1.20 ± 0.12 | 1.46 ± 0.08 | 1.48 ± 0.08 | 1.54 ± 0.08 | 70 | –
4 | COc1ccc2c(c1)C=NCCN=Cc1cc(OC)ccc1[O][Mn]([Cl])[O]2 [Compound C41] | – | 172.2 ± 2.2 | 83.5 ± 0.9 | 311 | 120 | – | – | – | – | 23.4 ± 2.6 | 136 | 0.28 ± 0.01 | 0.28 ± 0.01 | 1.37 ± 0.01 | 1.44 ± 0.04 | 1.35 ± 0.06 | 1.07 ± 0.03 | 114 | protection against glucose and glucose oxidase ([1]; 80 μM, glucose oxidase 0.019 units/ml): highly protective; turnovers before the catalase reaction ceased ([2]; 10 μM complex, 10 mM H2O2): about 16 turnovers; toxicity of compound alone ([4]; 80 μM, without t-BHP): equivalent toxicity with or without t-BHP
5 | horseradish peroxidase | – | – | – | – | – | – | – | – | – | – | – | – | – | – | – | – | – | – | rate of ABTS oxidation ([3]; 13.2 units/ml, pH 8.1, 1 mM H2O2): 99.3 µM/min; ABTS oxidation rate with t-BHP, percent of rate with H2O2 [6]: about 5.4%
